Results reported in patent US20240390369A1, “METHODS FOR DETERMINING RESPONSIVENESS TO TYK2 INHIBITORS” (Bristol-Myers Squibb Company, priority 2021, published 2024).

Test system: patients with psoriatic arthritis
Experiment: Phase 2 trial in psoriatic arthritis: PASI75 response at week 16
Assay type: in vivo, human
Details: for Interaction Term for PASI75 response (ratio of odds ratios): week 16
Protocol: In a double-blind Phase 2 trial, 203 patients with psoriatic arthritis were randomized into three groups: deucravacitinib 6 mg once daily (N=70), deucravacitinib 12 mg once daily (N=67), or placebo (N=66). All subjects had active psoriatic arthritis according to the Classification Criteria for Psoriatic Arthritis (CASPAR); for active disease, these criteria required ≥3 tender joint count, ≥3 swollen joint count, and a C-reactive protein level above 3 mg/L. Other inclusion criteria included the following: presence of at least one plaque psoriasis lesion, and prior treatment failure with a non-biologic disease modifying anti-rheumatic drug, a non-steroidal anti-inflammatory drug, or a steroid. With respect to treatment history, approximately 70% of subjects had not received prior treatment with a biologic and were biologic naïve, while up to 30% of subjects had failed or had been intolerant to one TNF-inhibitor (TNF=Tumor necrosis factor, also known as TNFα). Randomization was stratified by prior TNF-inhibitor use (experienced/naïve) and body weight (<90 kg and ≥90 kg).
Clinical measures included the Psoriasis […] (PASI) score for skin psoriasis, American College of Rheumatology 20 (ACR20) response, Psoriatic Arthritis Disease Activity Score (PASDAS), Health Assessment Questionnaire-Disability Index (HAQ-DI), and Disease Activity Score 28 CRP (DAS28). To evaluate the predictive value of different protein measurements for the clinical response to deucravacitinib, baseline protein concentrations for responders and non-responders, as defined by ACR20 or PASI75 at week 16, were compared for each arm (placebo, 6 mg deucravacitinib once-daily, and 12 mg deucravacitinib once-daily).
In addition, a logistic regression model was fit, to determine whether baseline disease score (dichotomized by the median baseline score, into baseline score high and baseline score low groups) was associated with response status. The model generated an odds ratio for each dosed arm versus placebo, in baseline score high and baseline score low groups.
Boxplots for baseline protein level by response were generated with a horizontal line indicating the median protein level at baseline. For each treatment arm, a two-sample t-test was performed to test whether mean baseline serum protein level was different in responders versus non-responders. A Wilcoxon rank sum test (Mann-Whitney U test) was also performed to evaluate the difference in median serum protein level between responders and non-responders. Further, barplots of ACR20 and PASI75 response rate at week 16 for each treatment arm were generated for all subjects (protein level high and protein level low subjects, dichotomized according to median baseline level). Line plots of ACR20 and PASI75 response rate over time for each treatment arm were generated for protein level high and protein level low groups. Logistic regression models were also fit to evaluate associations between baseline protein levels and clinical outcome.
For certain analyses described herein, patients were dichotomized by median values (e.g., of the proteins listed above or other measures) into “high” and “low” groups, such that the high group had values above the median and the low group had values less than or equal to the median.
In addition, logistic regression models were fit for response measures ACR20 and PASI75, to generate the odds ratio of each of the deucravacitinib treatment arms versus placebo, in BD2-high and BD2-low groups. The following logistic regression models were used: • For ACR20 response status: ACR20 (Y/N)=treatment arm+BD2 group+treatment arm*BD2 group+TNF-inhibitor use+baseline weight (continuous). • For PASI75 response status: PASI75 (Y/N)=treatment arm+BD2 group+treatment arm*BD2 group+TNF-inhibitor use+baseline weight (continuous). […]

[1] = 12 mg QD, Above median baseline CRP level
[2] = 12 mg QD, Below median baseline CRP level

Compound: [2H]C([2H])([2H])NC(=O)c1nnc(NC(=O)C2CC2)cc1Nc1cccc(-c2ncn(C)n2)c1OC [deucravacitinib, 6-(cyclopropanecarboxamido)-4-((2-methoxy-3-(1-methyl-1H-1,2,4-triazol-3-yl)phenyl)amino)-N-(methyl-d3)pyridazine-3-carboxamide]
- Number of subjects (6 mg QD, PASI75 responder, BD2-high-PASI-low): 4
- Number of subjects (6 mg QD, PASI75 responder, BD2-low-PASI-high): 2
- Number of subjects (6 mg QD, PASI75 responder, BD2-low-PASI-low): 5
- Number of subjects (6 mg QD, PASI75 responder, IL-17A-high-PASI-high): 12
- Number of subjects (6 mg QD, PASI75 responder, IL-17A-high-PASI-low): 7
- Number of subjects (6 mg QD, PASI75 responder, IL-17A-low-PASI-high): 4
- Number of subjects (6 mg QD, PASI75 responder, IL-17A-low-PASI-low): 2
- Number of subjects (6 mg QD, PASI75 responder, IL-19-high-PASI-high): 13
- Number of subjects (6 mg QD, PASI75 responder, IL-19-high-PASI-low): 6
- Number of subjects (6 mg QD, PASI75 responder, IL-19-low-PASI-high): 3
- Number of subjects (6 mg QD, PASI75 responder, IL-19-low-PASI-low): 3
- Interaction Term for PASI75 response (ratio of odds ratios) (12 mg QD vs placebo: BD2 high versus BD2 low): 14.233
- Interaction Term: treatment arm*CRP group, PASI75 (12 mg QD vs placebo: CRP high versus CRP low): 2.63
- Interaction Term: treatment arm*CRP group, PASI75 (12 mg QD vs placebo: CRP-high versus CRP-low, adjusted for baseline PASI score): 3.18
- Interaction Term: treatment arm*IL-17A group, PASI75 (12 mg QD vs placebo: IL-17A high versus IL-17A low, adjusted for baseline PASI score): 13.222
- Interaction Term for PASI75 response (ratio of odds ratios) (12 mg QD vs placebo: IL-17A high versus IL-17A low): 12.089
- Interaction Term for PASI75 response (ratio of odds ratios) (12 mg QD vs placebo: baseline PASI high versus PASI low): 6.42
- Number of subjects, PASI75 Non-responder at week 16 [1]: 7
- Number of subjects, PASI75 Responder at week 16 [1]: 18
- Number of subjects, PASI75 Non-responder at week 16 [2]: 14
- Number of subjects, PASI75 Responder at week 16 [2]: 13
- Number of subjects, PASI75 Non-responder (12 mg QD, CRP-high-PASI-high): 4
- Number of subjects, PASI75 Responder (12 mg QD, CRP-high-PASI-high): 10
- Number of subjects, PASI75 Non-responder (12 mg QD, CRP-high-PASI-low): 3
- Number of subjects, PASI75 Responder (12 mg QD, CRP-high-PASI-low): 8
- Number of subjects, PASI75 Non-responder (12 mg QD, CRP-low-PASI-high): 2
- Number of subjects, PASI75 Responder (12 mg QD, CRP-low-PASI-high): 10
- Number of subjects, PASI75 Non-responder (12 mg QD, CRP-low-PASI-low): 12
- Number of subjects, PASI75 Responder (12 mg QD, CRP-low-PASI-low): 3
- Number of subjects (12 mg QD, PASI75 non-responder at week 16, above baseline PASI median 6.6): 6
- Number of subjects (12 mg QD, PASI75 non-responder at week 16, above median baseline BD2 level): 11
- Number of subjects (12 mg QD, PASI75 non-responder at week 16, above median baseline IL-17A level): 8
- Number of subjects (12 mg QD, PASI75 non-responder at week 16, above median baseline IL-19 level): 6
- Number of subjects (12 mg QD, PASI75 non-responder at week 16, below baseline PASI median 6.6): 15
- Number of subjects (12 mg QD, PASI75 non-responder at week 16, below median baseline BD2 level): 13
- Number of subjects (12 mg QD, PASI75 non-responder at week 16, below median baseline IL-17A level): 13
- Number of subjects (12 mg QD, PASI75 non-responder at week 16, below median baseline IL-19 level): 14
- Number of subjects (12 mg QD, PASI75 non-responder, BD2-high-PASI-high): 5
- Number of subjects (12 mg QD, PASI75 non-responder, BD2-high-PASI-low): 5
- Number of subjects (12 mg QD, PASI75 non-responder, BD2-low-PASI-high): 1
- Number of subjects (12 mg QD, PASI75 non-responder, BD2-low-PASI-low): 10
- Number of subjects (12 mg QD, PASI75 non-responder, IL-17A-high-PASI-high): 5
- Number of subjects (12 mg QD, PASI75 non-responder, IL-17A-high-PASI-low): 3
- Number of subjects (12 mg QD, PASI75 non-responder, IL-17A-low-PASI-high): 1
- Number of subjects (12 mg QD, PASI75 non-responder, IL-17A-low-PASI-low): 12
- Number of subjects (12 mg QD, PASI75 non-responder, IL-19-high-PASI-high): 3
- Number of subjects (12 mg QD, PASI75 non-responder, IL-19-high-PASI-low): 3
- Number of subjects (12 mg QD, PASI75 non-responder, IL-19-low-PASI-high): 2
- Number of subjects (12 mg QD, PASI75 non-responder, IL-19-low-PASI-low): 12
- Number of subjects (12 mg QD, PASI75 responder at week 16, above baseline PASI median 6.6): 20
- Number of subjects (12 mg QD, PASI75 responder at week 16, above median baseline BD2 level): 23
- Number of subjects (12 mg QD, PASI75 responder at week 16, above median baseline IL-17A level): 18
